Assay results taken from patent US9403813B2, “Azetidine amide derivatives as orexin receptor antagonists” (ACTELION PHARMACEUTICALS LTD, priority 2013, dated 2016).

Assays:
humans = settings: primary insomnia; cited from earlier work
rat [1] = settings: cited from earlier work
rats [2] = settings: cited from earlier work
rat [3] = settings: cited from earlier work; remark: listed apart in the source
rats [4] = settings: rats treated with the compound; cited from earlier work
[5] = test system: amyloid precursor protein transgenic mice; settings: after acute sleep restriction, APP transgenic mice; cited from earlier work
mouse = settings: administered chronically; cited from earlier work
rats [6] = settings: fasted hungry rats exposed to food odors; cited from earlier work
rat [7] = settings: cited from earlier work; remark: listed apart in the source
human orexin-1 receptor = human orexin-1 receptor (Homo sapiens (Human), UniProt O43613); assay: Intracellular calcium measurements (FLIPR), antagonism of orexin-A response; assay type: cell-based; settings: CHO cells expressing human orexin-1 receptor, 3 nM orexin-A, geometric mean if determined several times, read-out: IC50 OX1
human orexin-1 receptor, sequence (O43613 whole entry): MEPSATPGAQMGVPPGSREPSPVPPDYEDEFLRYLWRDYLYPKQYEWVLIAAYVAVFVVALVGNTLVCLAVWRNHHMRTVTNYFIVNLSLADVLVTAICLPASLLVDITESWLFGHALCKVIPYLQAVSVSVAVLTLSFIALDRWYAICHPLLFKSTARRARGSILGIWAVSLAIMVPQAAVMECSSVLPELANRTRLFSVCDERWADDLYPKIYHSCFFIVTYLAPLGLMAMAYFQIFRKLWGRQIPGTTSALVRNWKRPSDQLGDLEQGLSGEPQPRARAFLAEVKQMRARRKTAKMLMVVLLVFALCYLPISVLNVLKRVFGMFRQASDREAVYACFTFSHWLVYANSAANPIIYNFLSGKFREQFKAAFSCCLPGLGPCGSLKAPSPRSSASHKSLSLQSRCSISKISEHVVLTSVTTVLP
Procedure, shortened: (§1)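 CHO cells expressing human OX1 or OX2 receptor, loaded with fluo-4 AM plus probenecid, preincubated with antagonist 120 min before 3 nM orexin-A challenge. FLIPR calcium peak heights compared with agonist-plus-vehicle response. IC50 possibly normalized to on-plate reference; geometric mean of repeat determinations.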

human orexin-2 receptor = human orexin-2 receptor (Homo sapiens (Human), UniProt O43614); assay: as above; assay type: cell-based; settings: CHO cells expressing human orexin-2 receptor, 3 nM orexin-A, geometric mean if determined several times, read-out: IC50 OX2
human orexin-2 receptor, sequence (O43614 whole entry): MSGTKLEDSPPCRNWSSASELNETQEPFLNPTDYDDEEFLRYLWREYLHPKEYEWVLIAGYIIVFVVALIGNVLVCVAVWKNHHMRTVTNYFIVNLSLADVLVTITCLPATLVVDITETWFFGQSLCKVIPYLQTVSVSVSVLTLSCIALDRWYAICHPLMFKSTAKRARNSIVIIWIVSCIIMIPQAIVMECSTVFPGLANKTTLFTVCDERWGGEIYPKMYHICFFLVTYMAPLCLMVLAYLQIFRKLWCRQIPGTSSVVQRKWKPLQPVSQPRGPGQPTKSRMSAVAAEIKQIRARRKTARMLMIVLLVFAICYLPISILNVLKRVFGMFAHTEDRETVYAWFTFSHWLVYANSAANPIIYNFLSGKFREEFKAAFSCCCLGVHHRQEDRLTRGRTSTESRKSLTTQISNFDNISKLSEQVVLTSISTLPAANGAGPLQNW
Procedure, shortened: as §1

rodents [8] = settings: cited from earlier work
rodents [9] = settings: cited from earlier work; remark: listed apart in the source

SMILES	IC50 (human orexin-1 receptor)	IC50 (human orexin-2 receptor)	further results
CNC(=O)[C@@H](c1ccccc1)N1CCc2cc(OC)c(OC)cc2[C@@H]1CCc1ccc(C(F)(F)F)cc1 [(2R)-2-{(1S)-6,7-dimethoxy-1-[2-(4-trifluoromethyl-phenyl)-ethyl]-3,4-dihydro-1H-isoquinolin-2-yl}-N-methyl-2-phenyl-acetamide]			clinical efficacy (humans): showed clinical efficacy; alertness (active wake and locomotion) (rat [1]): decrease alertness; time spent in REM and NREM sleep (rat [1]): dose-dependently increase the time spent in both REM and NREM sleep; cardiovascular responses to conditioned fear and novelty exposure (rats [2]): attenuated cardiovascular responses; activity in fear-potentiated startle paradigm (rat [3]): active; learning and memory (rats [4]): intact declarative and non-declarative learning and memory; brain levels of amyloid-beta and plaque deposition [5]: decreased brain levels of amyloid-beta (Aβ) as well as Aβ plaque deposition; antidepressant-like activity (mouse): induce antidepressant-like activity; natural activation induced by orexin A (rats [6]): attenuate the natural activation induced by orexin A; activity in nicotine self-administration (rat [7]): displayed pharmacological activity
COc1c(Cl)cccc1-c1nc([C@@H]2CCN2C(=O)c2ccc(Cl)cc2-n2nccn2)no1 [Example 119, {(S)-2-[5-(3-Chloro-2-methoxy-phenyl)-[1,2,4]oxadiazol-3-yl]-azetidin-1-yl}-(4-chloro-2-[1,2,3]triazol-2-yl-phenyl)-methanone]	0.038 µM	0.004 µM	
Cc1ccc(-n2nccn2)c(C(=O)N2CC[C@H]2c2nnc(-c3ccccc3)[nH]2)c1 [Example 120, (5-Methyl-2-[1,2,3]triazol-2-yl-phenyl)-[(S)-2-(5-phenyl-4H-[1,2,4]triazol-3-yl)-azetidin-1-yl]-methanone]	13.4 µM	0.45 µM	
Cc1ccc(C(=O)N2CC[C@H]2c2nnc(-c3ccccc3)[nH]2)c(-n2nccn2)c1 [Example 121, (4-Methyl-2-[1,2,3]triazol-2-yl-phenyl)-[(S)-2-(5-phenyl-4H-[1,2,4]triazol-3-yl)-azetidin-1-yl]-methanone]	9.07 µM	0.322 µM	
CCOc1ncccc1-c1nnc([C@@H]2CCN2C(=O)c2cc(C)ccc2-n2nccn2)[nH]1 [Example 122, {(S)-2-[5-(2-Ethoxy-pyridin-3-yl)-4H-[1,2,4]triazol-3-yl]-azetidin-1-yl}-(5-methyl-2-[1,2,3]triazol-2-yl-phenyl)-methanone]	2.3 µM	0.092 µM	
CCOc1ncccc1-c1nnc([C@@H]2CCN2C(=O)c2ccc(C)cc2-n2nccn2)[nH]1 [Example 123, {(S)-2-[5-(2-Ethoxy-pyridin-3-yl)-4H-[1,2,4]triazol-3-yl]-azetidin-1-yl}-(4-methyl-2-[1,2,3]triazol-2-yl-phenyl)-methanone]	2.04 µM	0.316 µM	
Cc1ccc(-n2nccn2)c(C(=O)N2CC[C@H]2c2nnc(-c3cccc(Cl)c3C)[nH]2)c1 [Example 124, {(S)-2-[5-(3-Chloro-2-methyl-phenyl)-4H-[1,2,4]triazol-3-yl]-azetidin-1-yl}-(5-methyl-2-[1,2,3]triazol-2-yl-phenyl)-methanone]	5.88 µM	0.238 µM	
Cc1ccc(-n2nccn2)c(C(=O)N2CC[C@H]2c2nnc(-c3ccccc3OC(F)(F)F)[nH]2)c1 [Example 125, (5-Methyl-2-[1,2,3]triazol-2-yl-phenyl)-{(S)-2-[5-(2-trifluoromethoxy-phenyl)-4H-[1,2,4]triazol-3-yl]-azetidin-1-yl}-methanone]	2.43 µM	0.056 µM	
COc1c(Cl)cccc1-c1nnc([C@@H]2CCN2C(=O)c2cc(C)ccc2-n2nccn2)[nH]1 [Example 126, {(S)-2-[5-(3-Chloro-2-methoxy-phenyl)-4H-[1,2,4]triazol-3-yl]-azetidin-1-yl}-(5-methyl-2-[1,2,3]triazol-2-yl-phenyl)-methanone]	7.23 µM	0.17 µM	
Cc1ccc(C(=O)N2CC[C@H]2c2nnc(-c3ccccc3OC(F)(F)F)[nH]2)c(-n2nccn2)c1 [Example 127, (4-Methyl-2-[1,2,3]triazol-2-yl-phenyl)-{(S)-2-[5-(2-trifluoromethoxy-phenyl)-4H-[1,2,4]triazol-3-yl]-azetidin-1-yl}-methanone]	0.866 µM	0.011 µM	
Cn1c(SCC(=O)N2CCC[C@H]2C(=O)Nc2ccccc2-c2ccccc2)nc2ccccc21 [N-Biphenyl-2-yl-1-{[(1-methyl-1H-benzimidazol-2-yl)sulfanyl]acetyl}-L-prolinamide]			nicotine-reinstatement for a conditioned reinforcer (rodents [8]): inhibited nicotine-reinstatement for a conditioned reinforcer; behavioral and molecular changes induced by repeated amphetamine (rodents [9]): reduced behavioral (locomotor sensitization) and molecular (transcriptional responses) changes

Second part, led by results:

IC50 (human orexin-1 receptor)	IC50 (human orexin-2 receptor)	SMILES	further results
0.414 µM	0.009 µM	Cc1cc(C(=O)N2CC[C@H]2c2nnc(-c3ccccc3OC(F)(F)F)[nH]2)c(-n2nccn2)cc1C [Example 128, (4,5-Dimethyl-2-[1,2,3]triazol-2-yl-phenyl)-{(S)-2-[5-(2-trifluoromethoxy-phenyl)-4H-[1,2,4]triazol-3-yl]-azetidin-1-yl}-methanone]	
0.454 µM	0.006 µM	COc1cc(C(=O)N2CC[C@H]2c2nnc(-c3ccccc3OC(F)(F)F)[nH]2)c(-n2nccn2)cc1C [Example 129, (5-Methoxy-4-methyl-2-[1,2,3]triazol-2-yl-phenyl)-{(S)-2-[5-(2-trifluoromethoxy-phenyl)-4H-[1,2,4]triazol-3-yl]-azetidin-1-yl}-methanone]	
0.245 µM	0.005 µM	Cc1cc(-n2nccn2)c(C(=O)N2CC[C@H]2c2nnc(-c3ccccc3OC(F)(F)F)[nH]2)cc1Cl [Example 130, (5-Chloro-4-methyl-2-[1,2,3]triazol-2-yl-phenyl)-{(S)-2-[5-(2-trifluoromethoxy-phenyl)-4H-[1,2,4]triazol-3-yl]-azetidin-1-yl}-methanone]	
0.497 µM	0.005 µM	COc1cc(C(=O)N2CC[C@H]2c2nnc(-c3ccccc3OC(F)(F)F)[nH]2)c(-n2nccn2)cc1Cl [Example 131, (4-Chloro-5-methoxy-2-[1,2,3]triazol-2-yl-phenyl)-{(S)-2-[5-(2-trifluoromethoxy-phenyl)-4H-[1,2,4]triazol-3-yl]-azetidin-1-yl}-methanone]	
0.315 µM	0.016 µM	O=C(c1ccc(Cl)cc1-n1nccn1)N1CC[C@H]1c1nnc(-c2ccccc2OC(F)(F)F)[nH]1 [Example 132, (4-Chloro-2-[1,2,3]triazol-2-yl-phenyl)-{(S)-2-[5-(2-trifluoromethoxy-phenyl)-4H-[1,2,4]triazol-3-yl]-azetidin-1-yl}-methanone]	
0.364 µM	0.017 µM	O=C(c1ccc(C(F)(F)F)cc1-n1nccn1)N1CC[C@H]1c1nnc(-c2ccccc2OC(F)(F)F)[nH]1 [Example 133, (2-[1,2,3]Triazol-2-yl-4-trifluoromethyl-phenyl)-{(S)-2-[5-(2-trifluoromethoxy-phenyl)-4H-[1,2,4]triazol-3-yl]-azetidin-1-yl}-methanone]	
0.563 µM	0.039 µM	Cc1ccc(-c2ccccc2)c(C(=O)N2CC[C@H]2c2nnc(-c3ccccc3OC(F)(F)F)[nH]2)c1 [Example 134, (4-Methyl-biphenyl-2-yl)-{(S)-2-[5-(2-trifluoromethoxy-phenyl)-4H-[1,2,4]triazol-3-yl]-azetidin-1-yl}-methanone]	
2 µM	0.348 µM	Cc1ccc(-c2ncccn2)c(C(=O)N2CC[C@H]2c2nnc(-c3ccccc3OC(F)(F)F)[nH]2)c1 [Example 135, (5-Methyl-2-pyrimidin-2-yl-phenyl)-{(S)-2-[5-(2-trifluoromethoxy-phenyl)-4H-[1,2,4]triazol-3-yl]-azetidin-1-yl}-methanone]	
